From PubChem BioAssay AID651592 (Sanford-Burnham Center for Chemical Genomics, 2012)
pIC50: −log10 of the molar value.

Key:
IL8 = assay: inhibitors of NFkB activation in CF airway cells, SAR follow-up, KKLEB cells, panel, IL8 HTRF, NFkB-GFP (AID 651592); conditions: PAF/TNFa-induced NFkB-GFP / IL8 HTRF, mean of runs, mean IC50 across panel replicates;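 further: immortalized cystic fibrosis airway epithelial KKLEB cells with an NF-kB GFP reporter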
[1] = molecular target: Interleukin-8 (Homo sapiens) (UniProt P10145); assay: as above; conditions: PAF/TNFa-induced NFkB-GFP / IL8 HTRF
Sequence of Interleukin-8 (Homo sapiens) (P10145 whole entry, looked up): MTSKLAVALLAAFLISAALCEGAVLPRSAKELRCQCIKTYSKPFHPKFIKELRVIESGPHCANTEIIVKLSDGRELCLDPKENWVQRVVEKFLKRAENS

[2] = as above; conditions: PAF/TNFa-induced NFkB-GFP / IL8 HTRF, CF-PAF assay
[3] = mean of runs, mean IC50 across panel replicates

Structure (SMILES) | pIC50 (IL8; PAF-induced) | pIC50 (IL8; TNFa-induced) | pIC50 ([1]; IL8, PAF-induced, run 1) | pIC50 ([1]; IL8, PAF-induced, run 2) | pIC50 ([1]; IL8, PAF-induced, run 3) | pIC50 ([1]; IL8, PAF-induced, run 4) | pIC50 ([1]; IL8, PAF-induced, run 5) | pIC50 ([1]; IL8, PAF-induced, run 6) | pIC50 ([1]; IL8, TNFa-induced, run 1) | pIC50 ([1]; IL8, TNFa-induced, run 2) | pIC50 ([1]; IL8, TNFa-induced, run 3) | pIC50 ([1]; IL8, TNFa-induced, run 4) | pIC50 ([1]; IL8, TNFa-induced, run 5) | pIC50 ([1]; IL8, TNFa-induced, run 6) | pIC50 [2, 3] | pIC50 ([2]; run 1) | pIC50 ([2]; run 2) | pIC50 ([2]; run 3) | pIC50 ([2]; run 4) | pIC50 ([2]; run 5) | also measured
Cc1ccc(NCc2cc3c(C(C)(C)C)nn(-c4ccccc4)c3[nH]c2=O)cc1 | 5.35 | < 4.18 | 5.57 | 5.49 | 5.46 | 5.42 | 5.23 | 5.10 | < 4.18 | < 4.18 | < 4.18 | < 4.18 | < 4.18 | < 4.18 | 4.40 | < 4.18 | 4.58 | 4.36 | < 4.18 | 4.87 | pIC50 ([2]; run 6): 4.62
O=C(Nc1ccc(N2CCN(C(=O)c3ccc(F)cc3)CC2)cc1)c1cncc(Br)c1 | 5.02 | 4.30 | 5.06 | 5.01 | 4.60 | 5.69 | 5.45 | 5.10 | < 4.18 | < 4.18 | < 4.18 | < 4.18 | 4.99 | 4.60 | 5.52 | 5.60 | 5.52 | 5.48 | 5.64 | 5.51 | pIC50 ([2]; run 6): 5.42
CCOc1ccc(NCc2cc3c(C(C)(C)C)nn(-c4ccccc4)c3[nH]c2=O)cc1 | 5.40 | < 4.18 | 5.58 | 5.48 | 5.47 | 5.35 | 5.34 | 5.25 | < 4.18 | < 4.18 | < 4.18 | < 4.18 | < 4.18 | < 4.18 | 4.59 | 4.89 | 4.70 | 4.65 | < 4.18 | 4.89 | pIC50 ([2]; run 6): 4.72
O=C(Nc1ccc(N2CCN(C(=O)c3ccccc3)CC2)cc1)c1ccncc1 | 4.25 | < 4.18 | < 4.18 | < 4.18 | 5.34 | < 4.18 | < 4.18 | < 4.18 | < 4.18 | < 4.18 | < 4.18 | < 4.18 | < 4.18 | < 4.18 | 4.40 | 4.49 | 4.42 | 4.32 | < 4.18 | < 4.18 | pIC50 ([2]; run 6): < 4.18
O=C(Nc1ccc(N2CCN(C(=O)c3ccccc3)CC2)cc1)c1ccccc1 | < 4.18 | < 4.18 | < 4.18 | < 4.18 | < 4.18 | < 4.18 | < 4.18 | < 4.18 | < 4.18 | < 4.18 | < 4.18 | < 4.18 | < 4.18 | < 4.18 | 4.30 | 4.52 | 4.50 | 4.37 | < 4.18 | < 4.18 | pIC50 ([2]; run 6): < 4.18
O=C(Nc1ccc(N2CCN(C(=O)c3ccccc3Cl)CC2)cc1)c1cncc(Br)c1 | 5.05 | 4.79 | 5.12 | 5.08 | 4.95 | 5.50 | 5.24 | 4.77 | 6.56 | 5.67 | 5.26 | < 4.18 | 5.08 | 4.85 | 5.56 | 5.70 | 5.60 | 5.58 | 5.57 | 5.52 | pIC50 ([2]; run 6): 5.44
O=C(Nc1ccc(N2CCN(C(=O)c3ccccc3Cl)CC2)cc1)c1cccnc1 | < 4.18 | < 4.18 | < 4.18 | < 4.18 | < 4.18 | < 4.18 | < 4.18 | < 4.18 | < 4.18 | < 4.18 | < 4.18 | < 4.18 | < 4.18 | < 4.18 | 4.60 | 5.43 | 5.38 | 5.32 | < 4.18 | < 4.18 | pIC50 ([2]; run 6): 5.14
O=C(Nc1ccc(N2CCN(C(=O)c3ccc(F)cc3)CC2)cc1)c1cccc(Br)c1 | < 4.18 | < 4.18 | < 4.18 | < 4.18 | < 4.18 | < 4.18 | < 4.18 | < 4.18 | < 4.18 | < 4.18 | < 4.18 | < 4.18 | < 4.18 | < 4.18 | 4.36 | 4.67 | 4.67 | 4.65 | < 4.18 | < 4.18 | pIC50 ([2]; run 6): < 4.18
O=C(Nc1ccc(N2CCN(C(=O)c3ccccc3F)CC2)cc1)c1cccc(Br)c1 | < 4.18 | 4.25 | < 4.18 | < 4.18 | < 4.18 | < 4.18 | < 4.18 | < 4.18 | < 4.18 | < 4.18 | < 4.18 | < 4.18 | < 4.18 | 5.20 | 4.37 | 4.74 | 4.74 | 4.67 | < 4.18 | < 4.18 | pIC50 ([2]; run 6): < 4.18
O=C(Nc1ccc(N2CCN(C(=O)c3ccccc3Cl)CC2)cc1)c1ccccc1 | 4.52 | 4.34 | < 4.18 | < 4.18 | 4.78 | > 5.00 | > 5.00 | 4.97 | < 4.18 | < 4.18 | < 4.18 | < 4.18 | < 4.18 | 5.05 | 5.39 | 5.41 | 5.39 | 5.37 | > 5.00 | > 5.00 | pIC50 ([2]; run 6): > 5.00
O=C(Nc1ccc(N2CCN(C(=O)c3ccccc3Cl)CC2)cc1)c1ccccn1 | 4.72 | < 4.18 | < 4.18 | 4.90 | 4.71 | 5.44 | 5.23 | 4.27 | < 4.18 | < 4.18 | < 4.18 | < 4.18 | < 4.18 | < 4.18 | 4.40 | 5.09 | 4.84 | 4.78 | < 4.18 | < 4.18 | pIC50 ([2]; run 6): < 4.18
O=C(Nc1ccc(N2CCN(C(=O)c3ccccc3)CC2)cc1)c1ccccn1 | < 4.18 | < 4.18 | < 4.18 | < 4.18 | < 4.18 | < 4.18 | < 4.18 | < 4.18 | < 4.18 | < 4.18 | < 4.18 | < 4.18 | < 4.18 | < 4.18 | < 4.18 | < 4.18 | < 4.18 | < 4.18 | < 4.18 | < 4.18 | pIC50 ([2]; run 6): < 4.18
O=C(Nc1ccc(N2CCN(C(=O)c3ccc(F)cc3)CC2)cc1)c1ccccn1 | < 4.18 | < 4.18 | < 4.18 | < 4.18 | < 4.18 | < 4.18 | < 4.18 | < 4.18 | < 4.18 | < 4.18 | < 4.18 | < 4.18 | < 4.18 | < 4.18 | < 4.18 | < 4.18 | < 4.18 | < 4.18 | < 4.18 | < 4.18 | pIC50 ([2]; run 6): < 4.18
O=C(Nc1ccc(N2CCN(C(=O)c3ccccc3Cl)CC2)cc1)c1cccc(Br)c1 | 4.26 | < 4.18 | < 4.18 | < 4.18 | < 4.18 | < 4.18 | < 4.18 | < 4.18 | < 4.18 | < 4.18 | < 4.18 | < 4.18 | < 4.18 | < 4.18 | 4.40 | < 4.18 | 4.78 | 4.62 | < 4.18 | < 4.18 | pIC50 ([2]; run 6): < 4.18
